Experimental data from patent US20250145608A1, “KRAS DEGRADING COMPOUNDS COMPRISING ANNULATED 2-AMINO-3-CYANO THIOPHENES” (Boehringer Ingelheim Int'l GmbH Corp., priority 2021, published 2025).
Like-named read-outs stand apart in the source and are kept apart here.

Tests used:
Format in all cases: cell-based
SW620 cells = test: SW620 cell proliferation assay (colorectal cancer, G12V), 5 days; details: Homo sapiens, SW-620, 120 h
Description: SW620 Cell Proliferation Assay (Colorectal Cancer, G12V)
(§1) SW620 cells (ATCC CCL-227) are dispensed into white bottom opaque 96 well plates (Perkin Elmer cat no. 5680) at a density of 2000 cells per well in 100 μL DMEM (BioWhittaker, Cat #BE12-605F) supplemented with 10% FCS. […] Compounds (10 mM stock in DMSO) are added at logarithmic dose series using the HP Digital Dispenser D300 (Tecan), normalizing for added DMSO. For the TO time point measurement, untreated cells are analysed at the time of compound addition. Plates are incubated for 5 days, and cell viability is measured using CellTiter-Glo luminescent cell viability reagent (Promega, Cat. No G7570). Viability (stated as percent of control) is defined as relative luminescence units RLU of each well divided by the RLU of cells in DMSO controls. IC50 values were computed from relative viability values using a four parametric logistic model.

KRAS(G12D) = target: T1, KRAS(G12D) (Homo sapiens, UniProt P01116, G12D); test: HiBit degradation assay in GP5d-HiBit-KRAS(G12D) cells (18 h; DC50, Dmax)
T1 construct: introduced immediately downstream of the initiating Methionine codon of the endogenous KRAS locus; host or cells: GP5d-HiBit-KRAS(G12D), a CRISPR knock-in at the endogenous locus
Description: A HiBit protein detection tag (amino acid sequence […], Seq ID No 1) was introduced immediately downstream of the initiating Methionine codon of the endogenous KRAS locus (Ensembl gene ID ENSG00000133703.7) of GP5d cells (ECACC Cat. No. 95090715) by CRISPR-based genome engineering using a KRAS(G12D) mutant donor construct encoding the HiBit tag. […] Correct modification of the KRAS locus was assessed by PCR-based genotyping and Sanger sequencing of the isolated PCR products. The resulting cell line is referred to as GP5d-HiBit-KRAS(G12D).
To assess PROTAC-mediated degradation of KRAS(G12D), GP5d-HiBit-KRAS(G12D) cells were seeded at 25000 cells per well in 100 μL Dulbecco's Modified Eagle medium (Sigma cat. no. D6429) supplemented with 10% fetal calf serum into white bottom opaque 96 well plates (Perkin Elmer cat no. 5680). Plates were incubated at 37° C., 5% CO2 in a humidified incubator over night to allow the cells to adhere. […] Plates were further incubated at 37° C. for 18 hours. Following incubation, 100 μL per well Promega Nano-Glo HiBit lytic detection reagent mix (Promega Nano-Glo HiBit Lytic Detection System #N3050), prepared according to the manufacturer's instructions in the kit, were added. To allow for adequate cell lysis, plates were incubated on an orbital shaker for 15 min and further incubated 30 min at room temperature. Upon completion of cell lysis, luminescence was measured using an Envision plate reader using the Ultrasensitive Luminescence Protocol for 96 well plates. Luminescence levels were normalized by the values obtained with DMSO-treated samples and plotted as percent of DMSO control. DC50 values were computed using a four parametric logistic model. Dmax values represent the maximal extent of degradation observed and is stated as percent of control (% Ctrl.) treatments. DC50 and Dmax are reported in Table 64 for representative compounds of the invention.

GP5d cells = test: GP5d cell proliferation assay (colorectal cancer, G12D), 5 days; details: Homo sapiens, 120 h
Description: GP5d Cell Proliferation Assay (Colorectal Cancer, G12D)
as §1, with “GP5d” for “SW620”, “(ECACC 95090715)” for “(ATCC CCL-227)”, “plates” for “plates (Perkin Elmer cat no. 5680)”, “5000” for “2000”

NCI-H358 cells = test: NCI-H358 CTG proliferation assay (120 h) (NSCLC, G12C); details: Homo sapiens
Description: NCI-H358 CTG Proliferation Assay (120 h) (NSCLC, G12C)
NCI-H358 cells (ATCC No. CRL-5807) are dispensed into white bottom opaque 96 well plates (Perkin Elmer cat no. 5680) at a density of 2000 cells per well in 100 μL RPMI-1640 ATCC-Formulation (Gibco #A10491)+10% FCS (fetal calf serum) (assay 1) or into black 384-well plates, flat and clear bottom (Greiner, PNr. 781091) at a density of 200 cells per well in 60 μl RPMI-1640 ATCC-Formulation (Gibco #A10491)+10% FCS (fetal calf serum) (assay 2). […] Compounds (10 mM stock in DMSO) are added at logarithmic dose series using the HP Digital Dispenser D300 (Tecan) (assay 1) or the ECHO acoustic liquid handler system (Beckman Coulter) (assay 2), normalizing for added DMSO and including DMSO controls. For the TO time point measurement, untreated cells are analyzed at the time of compound addition. Plates are incubated for 120 h, and cell viability is measured using CellTiter-Glo luminescent cell viability reagent (Promega product code G7570). Viability (stated as percent of control) is defined as relative luminescence units RLU of each well divided by the RLU of cells in DMSO controls. IC50 values are determined from viability measurements by non-linear regression using a four parameter model.

[1] = assay 1, read-out: H358 (assay 1) IC50
[2] = assay 2, read-out: H358 (assay 2) IC50

T1 sequence (P01116 1-188 isoform P01116-2 G12D): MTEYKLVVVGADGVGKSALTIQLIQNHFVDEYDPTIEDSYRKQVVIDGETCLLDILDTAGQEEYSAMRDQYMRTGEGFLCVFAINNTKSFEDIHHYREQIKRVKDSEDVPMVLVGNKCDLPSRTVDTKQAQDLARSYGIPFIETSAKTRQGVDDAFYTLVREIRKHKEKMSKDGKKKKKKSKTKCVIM

| Compound | IC50 (SW620 cells) [nM] | DC50 (KRAS(G12D)) [nM] | Dmax 18 h (KRAS(G12D)) [% Ctrl] | IC50 (GP5d cells) [nM] | IC50 (NCI-H358 cells; [1]) [nM] | IC50 (NCI-H358 cells; [2]) [nM] |
| --- | --- | --- | --- | --- | --- | --- |
| Cc1ncsc1-c1ccc(CNC(=O)[C@@H]2C[C@@H](O)CN2C(=O)C(c2cc(OCCCCN3CCCN(c4nccc(-c5noc([C@@]6(C)CCCc7sc(N)c(C#N)c76)n5)n4)[C@@H](C)C3)no2)C(C)C)cc1F (some centres unmarked) [I-5] | 47.9 | 6.5 | 92 | 13.8 | 117 | 58.4 |
| Cc1ncsc1-c1ccc(CNC(=O)[C@@H]2C[C@@H](O)CN2C(=O)[C@@H](NC(=O)COCCCN2CCCN(c3nccc(-c4noc([C@@]5(C)CCCc6sc(N)c(C#N)c65)n4)n3)[C@@H](C)C2)C(C)(C)C)cc1 [I-48] | 803 | 523 | 85 | 2630 | 3550 |  |
| Cc1cc(CNC(=O)[C@@H]2C[C@@H](O)CN2C(=O)C(c2cc(OCCCCN3CCCN(c4nccc(-c5noc([C@@]6(C)CCCc7sc(N)c(C#N)c76)n5)n4)[C@@H](C)C3)no2)C(C)C)c(F)cc1-c1scnc1C (some centres unmarked) [I-13] | 206 | 45.2 | 87 | 131 | 468 | 336 |
| Cc1ncsc1-c1ccc(CNC(=O)[C@@H]2C[C@@H](O)CN2C(=O)C(c2cc(OCCCCN3CCCN(c4nccc(-c5cc([C@@]6(C)CCCc7sc(N)c(C#N)c76)sn5)n4)[C@@H](C)C3)no2)C(C)C)cc1 (some centres unmarked) [I-12] | 109 | 42.1 | 86 | 106 | 407 | 118 |
| Cc1ncsc1-c1ccc(CNC(=O)[C@@H]2C[C@@H](O)CN2C(=O)C(C(C)C)n2cc(CCCCCN3CCCN(c4nccc(-c5noc([C@@]6(C)CCCc7sc(N)c(C#N)c76)n5)n4)[C@@H](C)C3)nn2)cc1 (some centres unmarked) [I-34] | 51.3 | 10.6 | 91 | 21.7 | 160 | 43.8 |
| Cc1cc(CNC(=O)[C@@H]2C[C@@H](O)CN2C(=O)C(c2cc(OCCCCN3CCCN(c4nccc(-c5noc([C@@]6(C)CCCc7sc(N)c(C#N)c76)n5)n4)[C@@H](C)C3)no2)C(C)C)ccc1-c1scnc1C (some centres unmarked) [I-10] | 115 | 15.4 | 91 | 39.3 | 265 | 203 |
| CC(C)C(C(=O)N1C[C@H](O)C[C@H]1C(=O)NCc1ccc(-n2cncn2)cc1)c1cc(OCCCCN2CCCN(c3nccc(-c4noc([C@@]5(C)CCCc6sc(N)c(C#N)c65)n4)n3)[C@@H](C)C2)no1 (some centres unmarked) [I-17] |  | 3.3 | 93 |  |  | 89.5 |
| CC(C)C(C(=O)N1C[C@H](O)C[C@H]1C(=O)NCc1ccc(Br)cc1)c1cc(OCCCCN2CCCN(c3nccc(-c4noc([C@@]5(C)CCCc6sc(N)c(C#N)c65)n4)n3)[C@@H](C)C2)no1 (some centres unmarked) [I-7] | 55.9 | 11 | 89 | 23.4 | 480 | 180 |
| Cc1ncsc1-c1ccc(CNC(=O)[C@@H]2C[C@@H](O)CN2C(=O)C(c2cc(OCCCCN3CCN(c4nccc(-c5noc([C@@]6(C)CCCc7sc(N)c(C#N)c76)n5)n4)[C@@H](C)C3)no2)C(C)C)cc1 (some centres unmarked) [I-11] | 9000 | 35.1 | 57 | ≥ 9000 | 712 | 349 |
| Cc1ncsc1-c1ccc(CNC(=O)[C@@H]2C[C@@H](O)CN2C(=O)C(c2cc(OCCCCCCN3CCCN(c4nccc(-c5noc([C@@]6(C)CCCc7sc(N)c(C#N)c76)n5)n4)[C@@H](C)C3)no2)C(C)C)cc1 (some centres unmarked) [I-8] | 50.4 | 11.4 | 86 | 90.2 | 725 | 136 |
| Cc1ncsc1-c1ccc(CNC(=O)[C@@H]2C[C@@H](O)CN2C(=O)C(c2cc(OCCCN3CCCN(c4ccnc(-c5noc([C@@]6(C)CCCc7sc(N)c(C#N)c76)n5)n4)[C@@H](C)C3)no2)C(C)C)cc1 (some centres unmarked) [I-21] |  | 41.1 | 90 |  |  | 81.3 |
| Cc1ncsc1-c1ccc(CNC(=O)[C@@H]2C[C@@H](O)CN2C(=O)C(c2cc(OCCCCN3CCCN(c4ccnc(-c5noc([C@@]6(C)CCCc7sc(N)c(C#N)c76)n5)n4)[C@@H](C)C3)no2)C(C)C)cc1 (some centres unmarked) [I-22] |  | 48.8 | 92 |  |  | 97.5 |
| Cc1ncsc1-c1ccc([C@H](CCOP(=O)(O)O)NC(=O)[C@@H]2C[C@@H](O)CN2C(=O)[C@H](C(C)C)n2cc(OCCCCN3CCCN(c4nccc(-c5noc([C@@]6(C)CCCc7sc(N)c(C#N)c76)n5)n4)[C@@H](C)C3)nn2)cc1 [I-39] |  | 7.7 | 87 |  |  | 57 |
| Cc1ncsc1-c1ccc(CNC(=O)[C@@H]2C[C@@H](O)CN2C(=O)C(c2cc(OCCOCCN3CCCN(c4nccc(-c5noc([C@@]6(C)CCCc7sc(N)c(C#N)c76)n5)n4)[C@@H](C)C3)no2)C(C)C)cc1 (some centres unmarked) [I-14] |  | 76 | 80 |  |  | 843 |
| Cc1ncsc1-c1ccc([C@@H](NC(=O)[C@@H]2C[C@@H](O)CN2C(=O)[C@@H](C(C)C)n2cc(OCCCCN3CCCN(c4nccc(-c5noc([C@@]6(C)CCCc7sc(N)c(C#N)c76)n5)n4)[C@@H](C)C3)nn2)[C@H](C)O)cc1 (single isomer, unassigned) [I-40] |  | 970 | 61 |  |  | 2720 |
| Cc1ncsc1-c1ccc([C@@H](NC(=O)[C@@H]2C[C@@H](O)CN2C(=O)[C@@H](C(C)C)n2cc(OCCCCN3CCCN(c4nccc(-c5noc([C@@]6(C)CCCc7sc(N)c(C#N)c76)n5)n4)[C@@H](C)C3)nn2)[C@H](O)C(C)C)cc1 (single isomer, unassigned) [I-44] |  | 49.7 | 88 |  |  | 604 |
| Cc1ncsc1-c1ccc([C@@H](NC(=O)[C@@H]2C[C@@H](O)CN2C(=O)[C@@H](C(C)C)n2cc(OCCCN3CCCN(c4nccc(-c5noc([C@@]6(C)CCCc7sc(N)c(C#N)c76)n5)n4)[C@@H](C)C3)nn2)[C@H](O)C(C)C)cc1 (single isomer, unassigned) [I-42] |  | 462 | 74 |  |  | 1920 |
| Cc1ncsc1-c1ccc(CNC(=O)[C@@H]2C[C@@H](O)CN2C(=O)C(c2cc(OC/C=C/CN3CCCN(c4nccc(-c5noc([C@@]6(C)CCCc7sc(N)c(C#N)c76)n5)n4)[C@@H](C)C3)no2)C(C)C)cc1 (some centres unmarked) [I-15] |  | 9.8 | 90 |  |  | 122 |
